Laboratory results as given in BigSolDB 2.1.

Settings: in NMP

CC(C)Oc1ccc2c(=O)c(-c3ccccc3)coc2c1
Settings | solubility (mole fraction)
278.15 K | 0.0605
283.15 K | 0.0683
288.15 K | 0.078
293.15 K | 0.0892
298.15 K | 0.101
303.15 K | 0.113
308.15 K | 0.129
313.15 K | 0.146
318.15 K | 0.165
323.15 K | 0.186
